Test results as given in patent US12077483B2, “Modified amine lipids” (Intellia Therapeutics, Inc., priority 2018, dated 2024).
Where “and” joins values, the source holds several entries; their conditions need not be identical. Identical values can stand only once.

Legend:
[1] = pKa of amine lipid by TNS fluorescence; format: physicochemical; details: probe TNS (6-(p-toluidino)-2-naphthalenesulfonic acid sodium salt), unformulated amine lipid in ethanol, sodium phosphate buffers -9.0
Method in brief: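 pKa derived from a sigmoidal fit of normalized TNS fluorescence (321 nm excitation, 448 nm emission) versus pH. Lipid from ethanol stock diluted to about 100 μM final in 0.1 M phosphate buffers, pH 4.5–9.0.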

[2] = LNP average particle size and polydispersity by dynamic light scattering; format: physicochemical; details: LNP with the compound as amine lipid
Method in brief: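 LNPs were diluted in PBS to a count rate of about 200-400 kcps and measured by DLS on a Zetasizer. Size is the intensity-weighted Z-average diameter, reported with number-average diameter, and the polydispersity index describes the spread of sizes around the mean.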

[3] = RNA encapsulation efficiency of LNP (Ribogreen fluorescence assay); format: physicochemical; details: LNP with the compound as amine lipid
Method in brief: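 LNP samples diluted in 1× TE with or without 0.2% Triton-X 100 for total or free RNA, stained ~10 min at room temperature in the dark with RiboGreen; fluorescence ex 488/em 525 nm against RNA standard curves. Encapsulation efficiency = (Total RNA−Free RNA)/Total RNA.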

mouse TTR = test: Serum TTR ELISA in mice after LNP delivery; format: in vivo; details: mouse serum, relative to TSS control of same experiment
Method in brief: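 Mouse TTR in serum was quantified by ELISA (samples diluted e.g. 10,000- and/or 2,500-fold) 6–7 days after dosing CD-1 females with LNP, typically 0.1 mpk. Values are reported relative to vehicle-treated controls (%).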

[4] = Expt. 5, composition ratio (mol %) 50/10/38.5/1.5
[5] = Expt. 6, composition ratio (mol %) 50/9/38/3 for Cmpnd 49, 50/10/38.5/1.5 for the others
[6] = Expt. 9, composition ratio (mol %) 50/9/38/3 for Cmpnd 49, 50/10/38.5/1.5 for the others
[7] = Expt. 10, composition ratio (mol %) 50/9/38/3 for Cmpnd 49, 50/10/38.5/1.5 for the others

| SMILES | pKa [1] | Num Ave Size (nm) [2, 6] [nm] | PDI [2, 6] | Z-Ave Size (nm) [2, 6] [nm] | Encapsulation (%) [3, 6] [%] | Num Ave Size (nm) [2, 7] [nm] | PDI [2, 7] | Z-Ave Size (nm) [2, 7] [nm] | Encapsulation (%) [3, 7] [%] | Serum TTR % TSS (mouse TTR; dose 0.03 mpk) [% TSS] | other results |
| --- | --- | --- | --- | --- | --- | --- | --- | --- | --- | --- | --- |
| CCCCC/C=C\C/C=C\CCCCCCCC(=O)OCC(COC(=O)CCCCCCC/C=C\C/C=C\CCCCC)OC(=O)CCC(CCCCCC)OC(=O)NC1CN(C)C1 (stereo not drawn) [Compound 84, 2-((4-(((1-methylazetidin-3-yl)carbamoyl)oxy)decanoyl)oxy)propane-1,3-diyl (9Z,9′Z,12Z,12′Z)-bis(octadeca-9,12-dienoate)] | 7.39 |  |  |  |  |  |  |  |  | 80.3 | Num Ave Size (nm) [2, 4]: 75 nm; PDI [2, 4]: 0.03; Z-Ave Size (nm) [2, 4]: 91.00 nm; Encapsulation (%) [3, 4]: 99%; Serum TTR % TSS (mouse TTR; dose 0.1 mpk): 73.2 % TSS |
| CCCCC/C=C\C/C=C\CCCCCCCC(=O)OCC(COC(=O)CCCCCCC/C=C\C/C=C\CCCCC)OC(=O)C1(C(CCCCCCCC)OC(=O)NCCN(C)CC)CC1 (stereo not drawn) [Compound 86, 2-((1-(1-(((2-(ethyl(methyl)amino)ethyl)carbamoyl)oxy)nonyl)cyclopropane-1-carbonyl)oxy)propane-1,3-diyl (9Z,9′Z,12Z,12′Z)-bis(octadeca-9,12-dienoate)] | 6.23 |  |  |  |  |  |  |  |  | 93.10 | Num Ave Size (nm) [2, 5]: 68 nm; PDI [2, 5]: 0.04; Z-Ave Size (nm) [2, 5]: 87.00 nm; Encapsulation (%) [3, 5]: 98%; Serum TTR % TSS (mouse TTR; dose 0.1 mpk): 28.80 % TSS |
| CCCCC/C=C\C/C=C\CCCCCCCC(=O)OCC(COC(=O)CCCCCCC/C=C\C/C=C\CCCCC)OC(=O)CC[C@H](CCCCCC)OC(=O)NCCN1CCCC1 [Compound 89, 2-(((S)-4-(((2-(pyrrolidin-1-yl)ethyl)carbamoyl)oxy)decanoyl)oxy)propane-1,3-diyl (9Z,9′Z,12Z,12′Z)-bis(octadeca-9,12-dienoate)] | 6.76 | 73 | 0.01 | 88 | 98 |  |  |  |  | 48.65 |  |
| CCCCC/C=C\C/C=C\CCCCCCCC(=O)OCC(COC(=O)CCCCCCC/C=C\C/C=C\CCCCC)OC(=O)CC[C@@H](CCCCCC)OC(=O)NCCN1CCCC1 [Compound 90, 2-(((R)-4-(((2-(pyrrolidin-1-yl)ethyl)carbamoyl)oxy)decanoyl)oxy)propane-1,3-diyl (9Z,9′Z,12Z,12′Z)-bis(octadeca-9,12-dienoate)] | 6.8 | 81 | 0.02 | 99 | 98 |  |  |  |  | 59.95 |  |
| CCCCC/C=C\C/C=C\CCCCCCCC(=O)OCC(COC(=O)CCCCCCC/C=C\C/C=C\CCCCC)OC(=O)CCC(CCCCCCCC)OC(=O)NCCN(C)C (stereo not drawn) [Compound 91, 2-((4-(((2-(dimethylamino)ethyl)carbamoyl)oxy)dodecanoyl)oxy)propane-1,3-diyl (9Z,9′Z,12Z,12′Z)-bis(octadeca-9,12-dienoate)] | 6.48 |  |  |  |  | 82 | 0.01 | 97 | 98 | 89 |  |
| CCCCC/C=C\C/C=C\CCCCCCCC(=O)OCC(COC(=O)CCCCCCC/C=C\C/C=C\CCCCC)OC(=O)CCC(CCCCCCCC)OC(=O)OC1CCN(C)CC1 (stereo not drawn) [Compound 92, 2-((4-((((1-methylpiperidin-4-yl)oxy)carbonyl)oxy)dodecanoyl)oxy)propane-1,3-diyl (9Z,9′Z,12Z,12′Z)-bis(octadeca-9,12-dienoate)] | 5.96 |  |  |  |  | 51 | 0.06 | 67 | 98 | 120 |  |
| CCCCC/C=C\C/C=C\CCCCCCCC(=O)OCC(COC(=O)CCCCCCC/C=C\C/C=C\CCCCC)OC(=O)CCC(CCCCCCCC)OC(=O)NCCN1CCC1 (stereo not drawn) [Compound 93, 2-((4-(((2-(azetidin-1-yl)ethyl)carbamoyl)oxy)dodecanoyl)oxy)propane-1,3-diyl (9Z,9′Z,12Z,12′Z)-bis(octadeca-9,12-dienoate)] | 6.96 |  |  |  |  | 86 | 0.01 | 103 | 98 | 100 |  |
| CCCCC/C=C\C/C=C\CCCCCCCC(=O)OCC(COC(=O)CCCCCCC/C=C\C/C=C\CCCCC)OC(=O)CCC(CCCCCCCC)OC(=O)OCCCCN(CC)CC (stereo not drawn) [Compound 95, 2-((4-(((4-(diethylamino)butoxy)carbonyl)oxy)dodecanoyl)oxy)propane-1,3-diyl (9Z,9′Z,12Z,12′Z)-bis(octadeca-9,12-dienoate)] | 6.15 |  |  |  |  | 88 | 0.01 | 105 | 98 | 77 |  |

More lines, main results first:

| pKa [1] | Num Ave Size (nm) [2, 6] [nm] | PDI [2, 6] | Z-Ave Size (nm) [2, 6] [nm] | Encapsulation (%) [3, 6] [%] | Num Ave Size (nm) [2, 7] [nm] | PDI [2, 7] | Z-Ave Size (nm) [2, 7] [nm] | Encapsulation (%) [3, 7] [%] | SMILES | Serum TTR % TSS (mouse TTR; dose 0.03 mpk) [% TSS] | other results |
| --- | --- | --- | --- | --- | --- | --- | --- | --- | --- | --- | --- |
| 6.14 |  |  |  |  | 73 | 0.03 | 89 | 98 | CCCCC/C=C\C/C=C\CCCCCCCC(=O)OCC(COC(=O)CCCCCCC/C=C\C/C=C\CCCCC)OC(=O)CCC(CCCCCCCC)OC(=O)NCCN(CC)CC (stereo not drawn) [Compound 96, 2-((4-(((2-(diethylamino)ethyl)carbamoyl)oxy)dodecanoyl)oxy)propane-1,3-diyl (9Z,9′Z,12Z,12′Z)-bis(octadeca-9,12-dienoate)] | 70 |  |
| 6.38 |  |  |  |  | 75 | 0.03 | 92 | 98 | CCCCC/C=C\C/C=C\CCCCCCCC(=O)OCC(COC(=O)CCCCCCC/C=C\C/C=C\CCCCC)OC(=O)CCCC(CCCCCCCC)OC(=O)NCCN(C)CC (stereo not drawn) [Compound 97, 2-((5-(((2-(ethyl(methyl)amino)ethyl)carbamoyl)oxy)tridecanoyl)oxy)propane-1,3-diyl (9Z,9′Z,12Z,12′Z)-bis(octadeca-9,12-dienoate)] | 79 |  |
| 6.6 | 83 | 0.05 | 102 | 99 |  |  |  |  | CCCCC/C=C\C/C=C\CCCCCCCC(=O)OCC(COC(=O)CCCCCCC/C=C\C/C=C\CCCCC)COC(=O)C(C)(C)C(CCCCCC)OC(=O)NCCN1CCCC1 (stereo not drawn) [Compound 100, 2-(((2,2-dimethyl-3-(((2-(pyrrolidin-1-yl)ethyl)carbamoyl)oxy)nonanoyl)oxy)methyl)propane-1,3-diyl (9Z,9′Z,12Z,12′Z)-bis(octadeca-9,12-dienoate)] | 46.68 |  |
| 6.09 |  |  |  |  |  |  |  |  | CCCCC/C=C\C/C=C\CCCCCCCC(=O)OCC(COC(=O)CCCCCCC/C=C\C/C=C\CCCCC)OC(=O)CCC(CC(CC)CC)OC(=O)NCCN(C)CC (stereo not drawn) [Compound 103, 2-((6-ethyl-4-(((2-(ethyl(methyl)amino)ethyl)carbamoyl)oxy)octanoyl)oxy)propane-1,3-diyl (9Z,9′Z,12Z,12′Z)-bis(octadeca-9,12-dienoate)] | 72.23 | Num Ave Size (nm) [2, 5]: 82 nm; PDI [2, 5]: 0.01; Z-Ave Size (nm) [2, 5]: 102.00 nm; Encapsulation (%) [3, 5]: 91%; Serum TTR % TSS (mouse TTR; dose 0.1 mpk): 29.05 % TSS |
| 6.53 | 64 | 0.02 | 80 | 99 |  |  |  |  | CCCCC/C=C\C/C=C\CCCCCCCC(=O)OCC(COC(=O)CCCCCCC/C=C\C/C=C\CCCCC)OC(=O)CCC(CCC(C)CCCC(C)C)OC(=O)NCCN1CCCC1 (stereo not drawn) [Compound 105, 2-((7,11-dimethyl-4-(((2-(pyrrolidin-1l-yl)ethyl)carbamoyl)oxy)dodecanoyl)oxy)propane-1,3-diyl (9Z,9′Z,12Z,12′Z)-bis(octadeca-9,12-dienoate)] | 47.97 |  |
| 6.8 | 74 | 0.01 | 91 | 99 |  |  |  |  | CCCCC/C=C\C/C=C\CCCCCCCC(=O)OCC(COC(=O)CCCCCCC/C=C\C/C=C\CCCCC)OC(=O)CCC(CC(CC)CC)OC(=O)NCCN1CCCC1 (stereo not drawn) [Compound 106, 2-((6-ethyl-4-(((2-(pyrrolidin-1-yl)ethyl)carbamoyl)oxy)octanoyl)oxy)propane-1,3-diyl (9Z,9′Z,12Z,12′Z)-bis(octadeca-9,12-dienoate)] |  | Serum TTR % TSS (mouse TTR; dose 0.03 mpk, 0.03 mg/kg): 82.47 % TSS and 88.7 % TSS |
| 6.35 | 72 | 0.03 | 89 | 98 |  |  |  |  | CCCCC/C=C\C/C=C\CCCCCCCC(=O)OCC(COC(=O)CCCCCCC/C=C\C/C=C\CCCCC)OC(=O)CCC(CC/C=C\CCCCC)OC(=O)NCCN(C)CC (stereo not drawn) [Compound 107, 2-(((Z)-4-(((2-(ethyl(methyl)amino)ethyl)carbamoyl)oxy)tridec-7-enoyl)oxy)propane-1,3-diyl (9Z,9′Z,12Z,12′Z)-bis(octadeca-9,12-dienoate)] | 58.53 |  |
